The values below come from patent US9321722B2, “Bis-indolic derivatives, their uses in particular as antibacterials” (UNIVERSITE JOSEPH FOURIER, priority 2011, dated 2016).

≈ marks a conversion by molar mass, not a printed value. Structures can show the parent of a compound that is named as a salt. Where two headings read alike, the source gives them in different places.

Experiment [1] concerns HCT116 (human colon tumor). The experiment in a line: In vitro cytotoxicity. Format: cell-based. The settings on record: HCT-116, read-out: % of cellular growth inhibition. The procedure: (§1) In vitro cytotoxicity was assayed on three cell lines—KB (human mouth carcinoma), MCR5 (human lung fibroblast) and HCT116 (human colon tumor). Results are presented in table III as % of cellular growth inhibition in presence of 10^−5 M and 10^−6 M of the tested bis-indolic derivatives.

In experiment [2] the test system is KB (human mouth carcinoma). The experiment in a line: In vitro cytotoxicity. Format: cell-based. The settings on record: read-out: % of cellular growth inhibition. The procedure:
as §1

For experiment [3], the system named is MRC5 (human lung fibroblast). In words: In vitro cytotoxicity. Format: cell-based. To be noted: MRC5, read-out: % of cellular growth inhibition. The method, then: as §1
In experiment [4] the test system is S. epidermidis CIP 81.55. The experiment in a line: MIC microdilution (Table I-1). The class given is cell-based, Staphylococcus epidermidis. The procedure: (§2) The microdilution method recommended by the Clinical and Laboratory Standard Institute [M07-A8, Vol. 29, N^o 2] was used. The activity of indolic compounds was tested against 29 bacterial strains belonging to 17 different species and 12 different genera (Staphylococcus, Streptococcus, Enterococcus, Listeria, Bacillus, Haemophilus, Escherichia, Klebsiella, Enterobacter, Serratia, Pseudomonas, and Acinetobacter). Bacterial inocula were prepared in Mueller Hinton broth (MH2, bioMerieux, Marcy L'Etoile, France), supplemented with 10% sheep blood for fastidious species (i.e., Streptococcus pneumoniae and Haemophilus influenzae). They were dispensed in 96 well microtiter plates (5×10^5 CFU/ml of final inoculum). Indolic compounds were added to the wells as to obtain two-fold serial concentrations (0.50-128 mg/L of final concentrations). Plates were incubated at 37° C. in ambient air, or at 37° C. in 5% CO2 enriched atmosphere for fastidious species. […] Drug-free cultures served as growth controls. Cultures receiving gentamicin, ciprofloxacin or cefotaxime served as positive controls.
In general terms: In broth dilution the organism is exposed to a series of concentrations in liquid medium.

Experiment [5] relates to S. epidermidis ATCC 12228. The experiment in a line: MIC microdilution (Table I-1). Format: cell-based, Staphylococcus epidermidis. The procedure: as §2
For experiment [6], the system named is S. epidermidis CIP 103627. The experiment in a line: MIC microdilution (Table I-1). The class given is cell-based, Staphylococcus epidermidis. The method, then: as §2
The test system of experiment [7] is 29 bacterial strains belonging to 17 different species. In words: Intrinsic antibacterial activity, MIC on the bacterial panel. The settings on record: result in words. The class given is cell-based. The method, then:
as §2

Experiment [8] concerns S. aureus ATCC 9144. The experiment in a line: MIC microdilution (Table I-1). The class given is cell-based, Staphylococcus aureus. The procedure:
as §2

Experiment [9] has as its system S. aureus ATCC 29213. The experiment in a line: MIC microdilution (Table I-1). The class given is cell-based, Staphylococcus aureus. The method, then:
as §2

Experiment [10] deals with S. aureus ATCC 6538. The experiment in a line: MIC microdilution (Table I-1). The class given is cell-based, Staphylococcus aureus. The procedure:
as §2

The subject of experiment [11] is S. aureus ATCC 33592 (MRSA). In words: MIC microdilution (Table I-1). The class given is cell-based, Staphylococcus aureus. The settings on record: read after 18 hours. The method, then: as §2
Experiment [12] relates to S. aureus CIP 103428. The experiment in a line: MIC microdilution (Table I-1). Format: cell-based, Staphylococcus aureus. The method, then:
as §2

Experiment [13] deals with S. aureus SA-1199B. In words: MIC microdilution (Table I-1). The class given is cell-based, Staphylococcus aureus. The method, then:
as §2

In experiment [14] the test system is S. aureus CIP 65.6. The experiment in a line: MIC microdilution (Table I-1). The class given is cell-based, Staphylococcus aureus. The method, then: as §2
The test system of experiment [15] is S. aureus CIP 65.25 (MRSA). The experiment in a line: MIC microdilution (Table I-1). The class given is cell-based, Staphylococcus aureus. To be noted: read after 18 hours. The method, then:
as §2

Experiment [16] deals with S. aureus ATCC 106414 (VISA). In words: MIC microdilution (Table I-1). The class given is cell-based, Staphylococcus aureus. The settings on record: read after 18 hours. The procedure:
as §2

Experiment [17] deals with S. pneumoniae ATCC 6303. In words: MIC microdilution (Table I-1). The class given is cell-based, Streptococcus pneumoniae. The procedure:
as §2

In experiment [18] the test system is S. pneumoniae ATCC 49619. In words: MIC microdilution (Table I-1). Format: cell-based. The settings on record: Streptococcus pneumoniae, ATCC49619, read after 18 hours. The method, then: as §2
Experiment [19] relates to S. pyogenes (group A) CIP 104226. The experiment in a line: MIC microdilution (Table I-1). Format: cell-based. The procedure:
as §2

Experiment [20] concerns Escherichia coli ATCC 25922. The experiment in a line: MIC microdilution (Table I-1). The class given is cell-based. The settings on record: ATCC25922, read after 18 hours. The method, then:
as §2

Experiment [21] concerns E. faecium CIP 54.32. In words: MIC microdilution (Table I-1). The class given is cell-based. The procedure: as §2
The test system of experiment [22] is S. aureus ATCC 25923. The experiment in a line: MIC microdilution (Table I-1). The class given is cell-based. To be noted: Staphylococcus aureus, ATCC25923, read after 18 hours. The method, then:
as §2

In experiment [23] the test system is S. agalactiae (group B) ATCC 12400. In words: MIC microdilution (Table I-1). The class given is cell-based. The procedure:
as §2

For experiment [24], the system named is Pseudomonas aeruginosa CIP 5933. In words: MIC microdilution (Table I-1). Format: cell-based. The settings on record: CIP5933, read after 18 hours. The procedure: as §2
Experiment [25] has as its system Enterobacter cloacae ATCC 13047. The experiment in a line: MIC microdilution (Table I-1). The class given is cell-based. To be noted: ATCC13047, read after 18 hours. The procedure:
as §2

In experiment [26] the test system is Acinetobacter baumanii ATCC 19606. The experiment in a line: MIC microdilution (Table I-1). The class given is cell-based. To be noted: Acinetobacter baumannii, ATCC19606, read after 18 hours. The procedure: as §2
Experiment [27] relates to Haemophilus influenzae ATCC 49766. The experiment in a line: MIC microdilution (Table I-1). The settings on record: Haemophilus influenzae, ATCC49766, 18 h. The class given is cell-based. The procedure: as §2
Experiment [28] has as its system Bacillus subtilis CIP 5262. The experiment in a line: MIC microdilution (Table I-1). The class given is cell-based. The procedure:
as §2

In experiment [29] the test system is S. mitis CIP 103335. The experiment in a line: MIC microdilution (Table I-1). Format: cell-based. The method, then:
as §2

Experiment [30] deals with E. faecalis ATCC 29212. The experiment in a line: MIC microdilution (Table I-1). Format: cell-based. The method, then: as §2
Experiment [31] has as its system Klebsiella pneumoniae ATCC 35657. The experiment in a line: MIC microdilution (Table I-1). Format: cell-based. The procedure: as §2
For experiment [32], the system named is Serratia marcescens CIP 103551. The experiment in a line: MIC microdilution (Table I-1). The class given is cell-based. The settings on record: CIP103551, read after 18 hours. The method, then:
as §2

In experiment [33] the test system is Listeria innocua CIP 80.11. In words: MIC microdilution (Table I-1). The class given is cell-based. The method, then: as §2
Setting [34] is: Staphylococcus aureus, read-out: MIC.

Usually inhibition stands for the percentage by which the read-out fell short of the control. For `O=C(C(=O)N1CCNCC1c1c[nH]c2ccc(Br)cc12)c1c[nH]c2ccc(Br)cc12` (stereo not shown) [Compound 7, 1-(5-bromo-1H-indol-3-yl)-2-(2-(5-bromo-1H-indol-3-yl)piperazin-1-yl)ethane-1,2-dione hydrochloride], the inhibition at 1 µM in experiment [1], in experiment [2] and in [3] was 0% each time. The figures for the inhibition at 10 µM in experiment [1], in experiment [2] and in [3] were 22 ± 7%, 4 ± 11% and 0%, respectively.
Take `CC(C)(C)OC(=O)NCC(NC(=O)C(F)(F)F)c1c[nH]c2ccc(Br)cc12` (stereo not shown) [Compound 13, tert-Butyl(2-(5-bromo-1H-indol-3-yl)-2-(2,2,2-trifluoroacetamido)ethyl)carbamate]: the MIC in experiment [4] (Staphylococcus epidermidis, CIP81, read after 18 hours, read-out: MIC) was above 128 µg/mL; in experiment [5] (Staphylococcus epidermidis, ATCC12228, read after 18 hours, read-out: MIC), above 128 µg/mL; in experiment [6] (Staphylococcus epidermidis, CIP103627, read after 18 hours, read-out: MIC), above 128 µg/mL; in [8] (Staphylococcus aureus, ATCC9144, read after 18 hours, read-out: MIC) it was above 128 µg/mL; in experiment [9] (Staphylococcus aureus, ATCC29213, read after 18 hours, read-out: MIC), 128 µg/mL (≈ 284 µM); in experiment [10] (Staphylococcus aureus, ATCC6538, read after 18 hours, read-out: MIC), 64 µg/mL (≈ 142 µM). In addition, the MIC in experiment [11] (setting [34]) was above 128 µg/mL; in [12] (Staphylococcus aureus, CIP103428, read after 18 hours, read-out: MIC), 64 µg/mL (≈ 142 µM); in [13] (Staphylococcus aureus, SA1199B, 18 h), 64 µg/mL (≈ 142 µM); in experiment [14] (Staphylococcus aureus, CIP65, read after 18 hours, read-out: MIC), above 128 µg/mL; in experiment [15] (setting [34]), above 128 µg/mL; in experiment [16] (setting [34]) it was above 128 µg/mL. The MIC was 128 µg/mL (≈ 284 µM) in experiment [17] (Streptococcus pneumoniae, ATCC6303, read after 18 hours, read-out: MIC); 128 µg/mL (≈ 284 µM) in [18]; 128 µg/mL (≈ 284 µM) in experiment [19] (Streptococcus pyogenes, CIP104226, read after 18 hours, read-out: MIC); above 128 µg/mL in [20]; above 128 µg/mL in experiment [21] (Enterococcus faecium, CIP54, read after 18 hours, read-out: MIC); above 128 µg/mL in experiment [22]. Moreover, the MIC in experiment [23] (Streptococcus agalactiae, ATCC12400, read after 18 hours, read-out: MIC) is 128 µg/mL (≈ 284 µM); in [24], above 128 µg/mL; in experiment [25] it was above 128 µg/mL; in [26], above 128 µg/mL; in experiment [27], above 128 µg/mL; in experiment [28] (CIP5262, read after 18 hours, read-out: MIC), 128 µg/mL (≈ 284 µM). Moreover, the MIC in [29] (Streptococcus mitis, CIP103335, read after 18 hours, read-out: MIC) was above 128 µg/mL; in [30] (Enterococcus faecalis, ATCC29212, read after 18 hours, read-out: MIC), above 128 µg/mL; in [31] (ATCC35657, read after 18 hours, read-out: MIC), above 128 µg/mL; in experiment [32] it was above 128 µg/mL; in [33] (CIP80, read after 18 hours, read-out: MIC) it was above 128 µg/mL. Also, in experiment [7], the intrinsic antibacterial activity result is recorded as “lack of intrinsic antibacterial activity”.
As for “tert-Butyl(2-(4-bromo)benzamido-2-(5-bromo-1H-indol-3-yl)ethyl)carbamate [Compound 12a]”, the MIC in experiment [4] (read after 18 hours), in experiment [5] (read after 18 hours), in [6] (read after 18 hours), in [8] (read after 18 hours), in [9] (read after 18 hours) and in experiment [10] (read after 18 hours) was above 32 µg/mL in each case. Besides, the MIC is above 32 µg/mL in [11]; above 32 µg/mL in experiment [12] (read after 18 hours); above 32 µg/mL in experiment [13] (S. aureus SA-1199B, read after 18 hours); above 32 µg/mL in [14] (read after 18 hours); above 32 µg/mL in experiment [15]; above 32 µg/mL in [16]. The MIC is 128 µg/mL in [17] (read after 18 hours); above 128 µg/mL in [19] (read after 18 hours); above 128 µg/mL in experiment [21] (read after 18 hours); 64 µg/mL in [23] (read after 18 hours); above 128 µg/mL in experiment [28] (read after 18 hours); above 128 µg/mL in experiment [29] (read after 18 hours). In addition, the MIC in experiment [30] (read after 18 hours) is above 128 µg/mL; in [31] (read after 18 hours), 64 µg/mL; in [33] (read after 18 hours), above 128 µg/mL. For the same compound, in experiment [7], the intrinsic antibacterial activity result is recorded as “lack of intrinsic antibacterial activity”.
